Source: article PMC12261219, “Comparative Evaluation of Thiol- and Amine-Conjugating Moieties for Endogenous Albumin Binding after Intravenous Administration” (ACS Pharmacology & Translational Science, 2025)
Values joined by “and” are separate entries in the source; they are usually repeats but may differ in a detail not shown here. Equal values may be shown once.

What was measured:
albumin (mouse serum) = molecular target: T1, albumin (mouse serum) (Mus musculus, UniProt P07724); test: SEC-ICP-MS albumin binding in mouse serum; format: in vitro ADME; details: for Pt195 in HMWF (albumin-bound) / Pt195 in LMWF: 100 µM, 37 °C
T1 construct: The serum was separated by centrifugation (two times 10 min at 900 g) after 10–20 min clotting at room temperature; from tissue; host or cells: serum of Balb/c mice
Method: (§1) Blood of Bab/c mice was collected under anesthesia via heart puncture. […] Human serum was purchased from Sigma-Aldrich. In order to guarantee a stable pH, all sera were buffered with 150 mM phosphate to pH 7.4 by dissolving the necessary amounts of Na2HPO4 and NaH2PO4 directly in the serum. […] The samples were then incubated in the autosampler at 37 °C and analyzed every hour for 4 or 5 h and after 24 h. Between each sample a pure water blank was measured. For measurements with 10 min intervals the same procedure was followed, but the blank measurements were omitted. For SEC-ICP-MS measurements an Agilent 1260 Infinity system coupled to an Agilent 7800 ICP-HRMS equipped with a dynamic reaction cell was used. Oxygen (purity 5.5, Messer Austria GmbH, Gumpoldskirchen, Austria) was used as reaction gas.

α1-antitrypsin = molecular target: T2, α1-antitrypsin (Homo sapiens, UniProt P01009); test: SEC-ICP-MS with single serum protein solution: α1-antitrypsin; format: binding; details: 200 μM α1-antitrypsin, 100 μM compound, 100 mM PB pH 7.4, 37 °C, 2 h
T2 construct: purchased Sigma-Aldrich A6150
Method: (§2) All investigated proteins were purchased from commercial suppliers: Albumin (Sigma-Aldrich, A8763), IgG (Athens Research, 16–16–090707), α1-antitrypsin (Sigma-Aldrich, A6150) and apotransferrin (Sigma-Aldrich, T1147). […] The compound stocks were diluted into the protein solution to reach a final concentration of 100 μM (27 μL protein and 3 μL compound). The samples were incubated at 37 °C for 2 h and analyzed as described for the SEC-ICP-MS studies (Tables S6 and S7).

apotransferrin = molecular target: T3, apotransferrin (Homo sapiens, UniProt P02787); test: SEC-ICP-MS with single serum protein solution: apotransferrin; format: binding; details: 200 μM apotransferrin, 100 μM compound, 100 mM PB pH 7.4, 37 °C, 2 h
T3 construct: purchased Sigma-Aldrich T1147
Method: as §2

[1] = Reduction with ascorbic acid, release of oxaliplatin (HPLC); format: physicochemical; details: 0.5 mM, 150 mM PB, pH 7.4, 20 °C, 30 eq. ascorbic acid
Method: The samples were incubated at 20 °C and measured over 25 h. […] RP-HPLC runs were performed using a Waters Acquity UPLC HSS T3 column (100 Å, 1.8 μm, 3.0 mm × 50 mm) on a Dionex Thermo Scientific UltiMate 3000 HPLC system, equipped with a HPG-3400RS binary pump and a DAD-3000RS UV–vis detector. Chromatograms were evaluated at a wavelength of 230 nm. Milli-Q water (mobile phase A) and acetonitrile (mobile phase B), both containing 0.1% TFA, were used as eluents. The flow rate was consistent at 0.6 mL/min for all measurements using the following gradient: 0–0.5 min A 99:1 B, 0.5–5.5 min linear gradient to A 1:99 B, 5.5–6.5 min A 1:99 B, 6.5–9.2 min A 99:1 B.

albumin (human serum) = molecular target: T4, albumin (human serum) (Homo sapiens, UniProt P02768); test: SEC-ICP-MS albumin binding in human serum; format: in vitro ADME; details: for Pt195 in HMWF (albumin-bound) / Pt195 in LMWF: 100 µM, 37 °C
T4 construct: Human serum was purchased from Sigma-Aldrich; tissue Sigma-Aldrich; host or cells: human serum
Method: as §1

IgG = test: SEC-ICP-MS with single serum protein solution: IgG; format: binding, human; details: 200 μM IgG, 100 μM compound, 100 mM PB pH 7.4, 37 °C, 2 h
Method: as §2

[2] = Serum pharmacokinetics (platinum, ICP-MS) in CT26-bearing Balb/c mice; details: serum platinum
Method: CT26 cells (5 × 10^5 in 50 μL serum-free medium) were injected subcutaneously (s.c.) into the right flank of male Balb/c mice. […] The blood, tumor and organ collection followed the study design in Figure A. Briefly, to assess serum platinum levels, blood was collected after 5 min, 30 min, 5 h and 24 h (2 mice per time point) via the facial vein. The serum was separated by centrifugation (two times 10 min at 900 g) after 10 min clotting at room temperature. […] All collected samples were stored at −20 °C and further processed for platinum measurements via ICP-MS as follows: HNO3 (67–69%, suprapur for trace metal analysis, NORMATOM; Distributor: VWR international, Austria) and conc. H2O2 suprapur (Merck, 30%) were used without further purification. Digestion of tissue (approximately 15–30 mg gravimetrically weighted) was performed with 2 mL of approximately 20% HNO3 and 100 μL H2O2 using an open vessel graphite digestion system (coated graphite heating plate, coated sample holder-top for 25 mL vials, PFA vials and PFA lids; Labter, ODLAB; Distributor: AHF Analysentechnik AG; Germany). Digested samples were diluted in Milli-Q water (18.2 MΩ cm, Milli-Q Advantage, Darmstadt, Germany). For the ICP-MS analysis, platinum and rhenium standards were derived from CPI International (Amsterdam, The Netherlands). The total platinum content was determined with a quadrupole-based Agilent 7800 ICP-MS instrument (Agilent Technologies, Tokyo, Japan) equipped with the Agilent SPS 4 autosampler (Agilent Technologies, Tokyo, Japan) and a MicroMist nebulizer at a sample uptake rate of approximately 0.2 mL/min. An RF power of 1550 W was used as well as nickel cones. Argon was used as plasma gas (15 L/min) and as carrier gas (∼1.1 L/min). The dwell time was set to 0.1 s and the measurements were performed in 6 replicates with 100 sweeps. Rhenium served as internal standard for platinum. The Agilent MassHunter software package (Workstation Software, version C.01.04) was used for data processing.
As platinum was measured in serum, equimolar administered doses were adjusted to correspond to platinum (0.0227 mmol, 4.42 mg platinum). The area under the “concentration”–time curve (AUC) was determined from time 0 to infinity (AUCPt_0‑∞) and from time 0 to 24 h (AUCPt_0–24, based on the last observed sample at 24 h; linear-log trapezoidal calculation method). The terminal slope (λ z ) was determined based on the last two (out of four) measurements (times 5 h and 24 h).

albumin = molecular target: T5, albumin (Homo sapiens, UniProt P02768); test: SEC-ICP-MS with single serum protein solution: albumin; format: binding; details: 200 μM albumin, 100 μM compound, 100 mM PB pH 7.4, 37 °C, 2 h
T5 construct: purchased Sigma-Aldrich A8763
Method: as §2

[3] = pH 7.4, 10 min intervals, 0 min
[4] = pH 7.4, 10 min intervals, 10 min
[5] = pH 7.4, 10 min intervals, 20 min
[6] = pH 7.4, 10 min intervals, 30 min
[7] = pH 7.4, 10 min intervals, 40 min
[8] = pH 7.4, 10 min intervals, 50 min
[9] = pH 7.4, 10 min intervals, 60 min

T1 sequence (P07724 25-608): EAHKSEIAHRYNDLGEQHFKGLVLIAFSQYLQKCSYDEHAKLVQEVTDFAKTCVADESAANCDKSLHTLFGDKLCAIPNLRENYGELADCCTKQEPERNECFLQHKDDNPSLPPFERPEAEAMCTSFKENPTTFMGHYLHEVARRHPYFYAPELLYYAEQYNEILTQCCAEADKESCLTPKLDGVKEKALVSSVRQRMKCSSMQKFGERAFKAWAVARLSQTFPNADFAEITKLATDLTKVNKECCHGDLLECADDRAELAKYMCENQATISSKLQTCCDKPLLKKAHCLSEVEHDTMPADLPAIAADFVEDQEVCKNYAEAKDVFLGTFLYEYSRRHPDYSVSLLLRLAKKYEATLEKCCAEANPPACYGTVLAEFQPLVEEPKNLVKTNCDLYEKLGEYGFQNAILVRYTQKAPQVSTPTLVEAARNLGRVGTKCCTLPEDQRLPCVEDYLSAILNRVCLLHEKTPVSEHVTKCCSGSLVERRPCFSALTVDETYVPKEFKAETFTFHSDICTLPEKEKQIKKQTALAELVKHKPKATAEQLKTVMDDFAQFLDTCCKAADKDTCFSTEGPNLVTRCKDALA
T4 sequence (P02768 25-609): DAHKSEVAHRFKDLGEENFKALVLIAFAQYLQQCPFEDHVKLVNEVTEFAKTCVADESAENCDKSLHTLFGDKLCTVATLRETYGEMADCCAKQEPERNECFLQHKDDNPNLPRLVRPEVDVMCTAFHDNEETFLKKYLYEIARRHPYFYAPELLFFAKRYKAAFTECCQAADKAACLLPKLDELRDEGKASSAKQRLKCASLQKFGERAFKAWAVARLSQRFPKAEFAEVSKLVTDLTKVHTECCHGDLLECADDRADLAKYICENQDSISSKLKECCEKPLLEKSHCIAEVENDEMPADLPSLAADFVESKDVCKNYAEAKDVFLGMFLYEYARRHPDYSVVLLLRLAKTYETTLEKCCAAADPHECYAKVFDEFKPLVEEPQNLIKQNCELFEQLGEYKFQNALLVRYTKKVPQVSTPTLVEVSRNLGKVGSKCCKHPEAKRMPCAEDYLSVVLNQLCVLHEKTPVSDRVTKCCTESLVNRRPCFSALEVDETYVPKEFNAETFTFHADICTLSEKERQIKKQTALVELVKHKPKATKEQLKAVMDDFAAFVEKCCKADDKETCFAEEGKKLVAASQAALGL
T3 sequence (P02787 20-698): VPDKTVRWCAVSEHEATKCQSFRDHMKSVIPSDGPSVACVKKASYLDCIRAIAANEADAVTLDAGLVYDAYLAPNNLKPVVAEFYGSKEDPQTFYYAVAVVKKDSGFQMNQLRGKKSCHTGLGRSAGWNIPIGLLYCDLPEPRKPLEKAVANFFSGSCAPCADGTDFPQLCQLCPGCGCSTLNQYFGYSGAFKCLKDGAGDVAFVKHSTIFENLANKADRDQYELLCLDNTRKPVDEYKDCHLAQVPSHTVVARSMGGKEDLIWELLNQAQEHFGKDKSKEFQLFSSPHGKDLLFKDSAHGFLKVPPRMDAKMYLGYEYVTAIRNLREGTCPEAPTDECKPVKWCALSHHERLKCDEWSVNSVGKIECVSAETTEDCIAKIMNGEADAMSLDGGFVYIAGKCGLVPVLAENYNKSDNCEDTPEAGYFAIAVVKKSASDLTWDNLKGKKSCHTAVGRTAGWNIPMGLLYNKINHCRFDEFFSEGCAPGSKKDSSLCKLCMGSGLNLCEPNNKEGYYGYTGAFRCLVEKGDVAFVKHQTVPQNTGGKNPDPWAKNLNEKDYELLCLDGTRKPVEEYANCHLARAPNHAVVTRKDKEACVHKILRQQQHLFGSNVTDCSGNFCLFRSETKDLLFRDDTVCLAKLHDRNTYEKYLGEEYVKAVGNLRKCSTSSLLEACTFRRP
T5 sequence (P02768 25-609): as the sequence (P02768 25-609) above
T2 sequence (P01009 25-418): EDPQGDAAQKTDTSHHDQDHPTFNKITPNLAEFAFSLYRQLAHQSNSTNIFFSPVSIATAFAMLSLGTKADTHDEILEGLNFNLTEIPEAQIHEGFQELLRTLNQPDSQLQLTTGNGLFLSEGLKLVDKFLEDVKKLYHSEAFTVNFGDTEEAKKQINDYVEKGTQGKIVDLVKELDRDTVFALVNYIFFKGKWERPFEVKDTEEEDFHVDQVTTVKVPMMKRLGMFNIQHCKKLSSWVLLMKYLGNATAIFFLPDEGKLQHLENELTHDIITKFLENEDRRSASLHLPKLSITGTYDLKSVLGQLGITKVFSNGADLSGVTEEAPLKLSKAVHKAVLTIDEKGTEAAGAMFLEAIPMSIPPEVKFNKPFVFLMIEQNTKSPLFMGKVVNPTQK

With CC(=O)[O][Pt-2]12([O]C(=O)NCCOCCOCCOCCOC(=O)C3=CCCCC3S(=O)(=O)Nc3ccc(F)cc3F)([NH2+]C3CCCCC3[NH2+]1)[O]C(=O)C(=O)[O]2 (mixture of isomers) [DFSA-Ox-OAc, (OC-6–34)-Acetato[(1R,2R)-1,2-cyclohexane-1,2-diamino][(1-(6-(N-(2,4-difluorophenyl)-sulfamoyl)-cyclohex-1-en-1-yl)-1-oxo-2,5,8,11-tetraoxatridecan-13-yl)-carbamato]-oxalato platinum(IV)] the “Pt195 in HMWF (albumin-bound)” value (albumin (mouse serum); [3]) was 2%, the “Pt195 in LMWF” value (albumin (mouse serum); [3]) was 98% and the “Pt195 in HMWF (albumin-bound)” value (albumin (mouse serum); [4]) was 18%. The “Pt195 in LMWF” value (albumin (mouse serum); [4]) was 82%, the “Pt195 in HMWF (albumin-bound)” value (albumin (mouse serum); [5]) was 32% and the “Pt195 in LMWF” value (albumin (mouse serum); [5]) was 68%. The “Pt195 in HMWF (albumin-bound)” value (albumin (mouse serum); [6]) was 43%, the “Pt195 in LMWF” value (albumin (mouse serum); [6]) was 57% and the “Pt195 in HMWF (albumin-bound)” value (albumin (mouse serum); [7]) was 52%. For the same molecule, the “Pt195 in LMWF” value (albumin (mouse serum); [7]) was 48%, the “Pt195 in HMWF (albumin-bound)” value (albumin (mouse serum); [8]) was 58% and the “Pt195 in LMWF” value (albumin (mouse serum); [8]) was 42%. For the same molecule, the “Pt195 in HMWF (albumin-bound)” value (albumin (mouse serum); [9]) was 63%, the “Pt195 in LMWF” value (albumin (mouse serum); [9]) was 37% and the “Pt195 in LMWF” value (albumin (mouse serum); pH 7.4, 1 h intervals, 0 h) was 99%. For the same molecule, the “Pt195 in HMWF (albumin-bound)” value (albumin (mouse serum); pH 7.4, 1 h intervals, 1 h) was 65%, the “Pt195 in LMWF” value (albumin (mouse serum); pH 7.4, 1 h intervals, 1 h) was 35% and the “Pt195 in HMWF (albumin-bound)” value (albumin (mouse serum); pH 7.4, 1 h intervals, 2 h) was 78% and ~80%. The “Pt195 in LMWF” value (albumin (mouse serum); pH 7.4, 1 h intervals, 2 h) was 22%, the “Pt195 in HMWF (albumin-bound)” value (albumin (mouse serum); pH 7.4, 1 h intervals, 3 h) was 82% and the “Pt195 in LMWF” value (albumin (mouse serum); pH 7.4, 1 h intervals, 3 h) was 18%. The “Pt195 in HMWF (albumin-bound)” value (albumin (mouse serum); pH 7.4, 1 h intervals, 4 h) was 82%, the “Pt195 in LMWF” value (albumin (mouse serum); pH 7.4, 1 h intervals, 4 h) was 18% and the “Pt195 in HMWF (albumin-bound)” value (albumin (mouse serum); pH 7.4, 1 h intervals, 24 h) was 70%. The “Pt195 in LMWF” value (albumin (mouse serum); pH 7.4, 1 h intervals, 24 h) was 30%, the Maximum albumin binding (albumin (mouse serum); reached after several hours) was 82% and the “Platinum in the HMWF (protein-bound)” value (α1-antitrypsin) was 20%. The “Platinum in the HMWF (protein-bound)” value (apotransferrin) was < 5%, the “Oxaliplatin detected (released) after 25 h” value [1] was 10% and the “Pt195 in HMWF (albumin-bound)” value (albumin (human serum); pH 7.4, 0 h) was 0%. For the same molecule, the “Pt195 in LMWF” value (albumin (human serum); pH 7.4, 0 h) was 100%, the “Pt195 in HMWF (albumin-bound)” value (albumin (human serum); pH 7.4, 1 h) was 34% and the “Pt195 in LMWF” value (albumin (human serum); pH 7.4, 1 h) was 66%. The “Pt195 in HMWF (albumin-bound)” value (albumin (human serum); pH 7.4, 2 h) was 50%, the “Pt195 in LMWF” value (albumin (human serum); pH 7.4, 2 h) was 50% and the “Pt195 in HMWF (albumin-bound)” value (albumin (human serum); pH 7.4, 3 h) was 59%. The “Pt195 in LMWF” value (albumin (human serum); pH 7.4, 3 h) was 41%, the “Pt195 in HMWF (albumin-bound)” value (albumin (human serum); pH 7.4, 4 h) was 63% and the “Pt195 in LMWF” value (albumin (human serum); pH 7.4, 4 h) was 37%. For the same molecule, the “Pt195 in HMWF (albumin-bound)” value (albumin (human serum); pH 7.4, 5 h) was 66%, the “Pt195 in LMWF” value (albumin (human serum); pH 7.4, 5 h) was 34% and the “Pt195 in HMWF (albumin-bound)” value (albumin (human serum); pH 7.4, 24 h) was 59%. The “Pt195 in LMWF” value (albumin (human serum); pH 7.4, 24 h) was 41%, the Maximum albumin binding (albumin (human serum); reached after several hours) was 66% and the “Platinum in the HMWF (protein-bound)” value (IgG) was < 5%. For the same molecule, the Cmax ([2]; measured at tmax=0.08 h, single i.v. dose 4.42 mg/kg Pt) was 4.61 mg/kg, the “Percentage of AUCPt_0-∞ extrapolated from tlast to infinity” value ([2]; tlast=24 h) was 45.6% and the Half-life ([2]; terminal half-life, i.v.) was 21.9 h. The CL ([2]; total body clearance, single i.v. dose 4.42 mg/kg Pt) was 0.0685 kg/h/kg, the Vz ([2]; volume of distribution based on the terminal phase, i.v.) was 2.17 kg/kg and the “Platinum in the HMWF (protein-bound)” value (albumin) was 26%.
